What was measured:
Experiment in all cases: biochemical
Design in all cases: DiscoveRx KINOMEscan competition binding, percent of DMSO control signal at 100 nM
Settings in all cases: read-out: Fig. 4a / Percent Control / Compound 1; percent of DMSO control, competition binding
[1] = molecular target: T1, CDK4-cyclinD3 (Homo sapiens, UniProt P11802)
T1 construct: cyclinD3

[2] = molecular target: ALK(C1156Y) (Homo sapiens, UniProt Q9UM73, C1156Y)
[3] = molecular target: SRPK1 (Homo sapiens, UniProt Q96SB4)
[4] = molecular target: TSSK3 (Homo sapiens, UniProt Q96PN8)
[5] = molecular target: NLK (Homo sapiens, UniProt Q9UBE8)
[6] = molecular target: EGFR(L858R,T790M) (Homo sapiens, UniProt P00533, L858R/T790M)
[7] = molecular target: DAPK1 (Homo sapiens, UniProt P53355)
[8] = molecular target: MAP4K3 (Homo sapiens, UniProt Q8IVH8)
[9] = molecular target: RAF1 (Homo sapiens, UniProt P04049)
[10] = molecular target: T2, RSK2(Kin.Dom.2-C-terminal) (Homo sapiens, UniProt P51812)
T2 construct: gene RPS6KA3; Kin.Dom.2-C-terminal

[11] = molecular target: INSR (Homo sapiens, UniProt P06213)
[12] = molecular target: PIK3CD (Homo sapiens, UniProt O00329)
[13] = molecular target: RIPK4 (Homo sapiens, UniProt P57078)
[14] = molecular target: CDKL3 (Homo sapiens, UniProt Q8IVW4)
[15] = molecular target: T3, JNK3 (Homo sapiens, UniProt P53779)
T3 construct: gene MAPK10

[16] = molecular target: T4, ABL1(M351T)-phosphorylated (Homo sapiens, UniProt P00519, M351T)
T4 construct: phosphorylated

[17] = molecular target: FLT1 (Homo sapiens, UniProt P17948)
[18] = molecular target: SBK1 (Homo sapiens, UniProt Q52WX2)
[19] = molecular target: TTK (Homo sapiens, UniProt P33981)
[20] = molecular target: T5, JNK2 (Homo sapiens, UniProt P45984)
T5 construct: gene MAPK9

[21] = molecular target: MAP4K2 (Homo sapiens, UniProt Q12851)
[22] = molecular target: GAK (Homo sapiens, UniProt O14976)
[23] = molecular target: FLT3-autoinhibited (Homo sapiens, UniProt P36888)
[24] = molecular target: DDR1 (Homo sapiens, UniProt Q08345)
[25] = molecular target: T6, CTK (Homo sapiens, UniProt P42679)
T6 construct: gene MATK
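Note: KINOMEscan kinase panel binding assay, signal normalized between DMSO as 100% and a positive control compound as 0%.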

T5 sequence (P45984 whole entry): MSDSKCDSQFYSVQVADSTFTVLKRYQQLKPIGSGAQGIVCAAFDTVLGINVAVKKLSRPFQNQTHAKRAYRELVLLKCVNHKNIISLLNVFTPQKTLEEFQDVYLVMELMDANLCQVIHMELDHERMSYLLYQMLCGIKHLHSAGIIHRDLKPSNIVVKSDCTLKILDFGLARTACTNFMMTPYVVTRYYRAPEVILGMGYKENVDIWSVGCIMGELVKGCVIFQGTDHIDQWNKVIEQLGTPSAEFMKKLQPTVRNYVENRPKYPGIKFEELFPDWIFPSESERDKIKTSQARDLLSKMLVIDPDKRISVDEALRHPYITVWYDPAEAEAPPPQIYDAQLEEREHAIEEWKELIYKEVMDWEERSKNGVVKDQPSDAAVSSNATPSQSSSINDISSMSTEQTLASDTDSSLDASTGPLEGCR
PIK3CD, sequence (O00329 whole entry): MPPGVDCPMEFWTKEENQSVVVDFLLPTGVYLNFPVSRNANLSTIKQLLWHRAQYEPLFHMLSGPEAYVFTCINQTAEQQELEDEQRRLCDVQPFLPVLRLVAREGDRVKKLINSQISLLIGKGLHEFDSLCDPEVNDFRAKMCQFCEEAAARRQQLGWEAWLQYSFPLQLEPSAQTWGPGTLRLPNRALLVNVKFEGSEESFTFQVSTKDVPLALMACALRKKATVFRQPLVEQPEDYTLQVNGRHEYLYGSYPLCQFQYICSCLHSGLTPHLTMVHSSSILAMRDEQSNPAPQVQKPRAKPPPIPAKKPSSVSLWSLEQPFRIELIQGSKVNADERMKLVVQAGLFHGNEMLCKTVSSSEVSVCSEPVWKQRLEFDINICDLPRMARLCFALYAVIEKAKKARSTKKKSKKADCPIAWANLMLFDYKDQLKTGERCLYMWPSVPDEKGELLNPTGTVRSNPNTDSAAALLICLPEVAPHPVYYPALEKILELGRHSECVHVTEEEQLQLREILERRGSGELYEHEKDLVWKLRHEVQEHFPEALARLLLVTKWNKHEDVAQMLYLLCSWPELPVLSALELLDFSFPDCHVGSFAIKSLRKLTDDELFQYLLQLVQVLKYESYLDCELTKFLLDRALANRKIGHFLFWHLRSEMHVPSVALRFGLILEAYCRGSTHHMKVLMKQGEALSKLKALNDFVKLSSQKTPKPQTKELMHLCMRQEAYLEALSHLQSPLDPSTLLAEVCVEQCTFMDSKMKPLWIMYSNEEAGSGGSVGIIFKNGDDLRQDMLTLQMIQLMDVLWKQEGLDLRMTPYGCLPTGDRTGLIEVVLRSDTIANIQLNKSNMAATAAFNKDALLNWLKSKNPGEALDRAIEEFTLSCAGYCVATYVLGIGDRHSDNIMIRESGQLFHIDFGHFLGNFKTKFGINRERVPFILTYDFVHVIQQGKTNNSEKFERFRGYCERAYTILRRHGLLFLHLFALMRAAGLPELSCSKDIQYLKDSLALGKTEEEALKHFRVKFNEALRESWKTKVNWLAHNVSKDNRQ
RAF1, sequence (P04049 whole entry): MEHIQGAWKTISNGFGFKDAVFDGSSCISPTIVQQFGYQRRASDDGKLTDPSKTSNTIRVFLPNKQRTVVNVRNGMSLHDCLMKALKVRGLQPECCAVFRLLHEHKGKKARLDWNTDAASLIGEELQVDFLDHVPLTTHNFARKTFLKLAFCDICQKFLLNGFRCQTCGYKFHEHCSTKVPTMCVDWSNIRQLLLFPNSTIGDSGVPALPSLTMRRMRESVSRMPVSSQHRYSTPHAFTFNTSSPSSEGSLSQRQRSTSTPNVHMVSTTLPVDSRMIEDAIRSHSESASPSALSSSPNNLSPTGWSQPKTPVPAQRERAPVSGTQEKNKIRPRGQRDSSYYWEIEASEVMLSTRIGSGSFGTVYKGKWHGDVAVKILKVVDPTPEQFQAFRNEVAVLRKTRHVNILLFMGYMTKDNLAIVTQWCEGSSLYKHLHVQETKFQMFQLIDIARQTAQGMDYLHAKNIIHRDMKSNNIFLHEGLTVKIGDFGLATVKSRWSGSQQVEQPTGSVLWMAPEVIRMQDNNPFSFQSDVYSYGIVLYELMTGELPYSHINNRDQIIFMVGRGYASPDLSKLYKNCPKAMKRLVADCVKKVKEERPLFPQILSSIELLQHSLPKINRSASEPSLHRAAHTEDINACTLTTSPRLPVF
T6 sequence (P42679 whole entry): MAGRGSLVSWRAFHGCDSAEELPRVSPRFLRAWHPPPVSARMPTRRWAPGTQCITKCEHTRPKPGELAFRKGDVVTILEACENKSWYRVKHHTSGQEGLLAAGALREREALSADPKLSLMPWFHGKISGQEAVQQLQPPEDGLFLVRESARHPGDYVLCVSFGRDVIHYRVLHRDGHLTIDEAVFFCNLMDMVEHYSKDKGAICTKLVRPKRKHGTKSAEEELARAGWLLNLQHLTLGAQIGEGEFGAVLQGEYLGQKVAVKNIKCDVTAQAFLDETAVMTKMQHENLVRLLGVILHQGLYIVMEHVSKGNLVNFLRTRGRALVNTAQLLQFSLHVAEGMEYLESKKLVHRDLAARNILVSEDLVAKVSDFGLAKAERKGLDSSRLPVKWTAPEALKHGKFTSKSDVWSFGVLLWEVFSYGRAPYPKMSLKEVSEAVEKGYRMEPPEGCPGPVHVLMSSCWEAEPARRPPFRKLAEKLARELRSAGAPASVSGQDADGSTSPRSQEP
INSR, sequence (P06213 whole entry): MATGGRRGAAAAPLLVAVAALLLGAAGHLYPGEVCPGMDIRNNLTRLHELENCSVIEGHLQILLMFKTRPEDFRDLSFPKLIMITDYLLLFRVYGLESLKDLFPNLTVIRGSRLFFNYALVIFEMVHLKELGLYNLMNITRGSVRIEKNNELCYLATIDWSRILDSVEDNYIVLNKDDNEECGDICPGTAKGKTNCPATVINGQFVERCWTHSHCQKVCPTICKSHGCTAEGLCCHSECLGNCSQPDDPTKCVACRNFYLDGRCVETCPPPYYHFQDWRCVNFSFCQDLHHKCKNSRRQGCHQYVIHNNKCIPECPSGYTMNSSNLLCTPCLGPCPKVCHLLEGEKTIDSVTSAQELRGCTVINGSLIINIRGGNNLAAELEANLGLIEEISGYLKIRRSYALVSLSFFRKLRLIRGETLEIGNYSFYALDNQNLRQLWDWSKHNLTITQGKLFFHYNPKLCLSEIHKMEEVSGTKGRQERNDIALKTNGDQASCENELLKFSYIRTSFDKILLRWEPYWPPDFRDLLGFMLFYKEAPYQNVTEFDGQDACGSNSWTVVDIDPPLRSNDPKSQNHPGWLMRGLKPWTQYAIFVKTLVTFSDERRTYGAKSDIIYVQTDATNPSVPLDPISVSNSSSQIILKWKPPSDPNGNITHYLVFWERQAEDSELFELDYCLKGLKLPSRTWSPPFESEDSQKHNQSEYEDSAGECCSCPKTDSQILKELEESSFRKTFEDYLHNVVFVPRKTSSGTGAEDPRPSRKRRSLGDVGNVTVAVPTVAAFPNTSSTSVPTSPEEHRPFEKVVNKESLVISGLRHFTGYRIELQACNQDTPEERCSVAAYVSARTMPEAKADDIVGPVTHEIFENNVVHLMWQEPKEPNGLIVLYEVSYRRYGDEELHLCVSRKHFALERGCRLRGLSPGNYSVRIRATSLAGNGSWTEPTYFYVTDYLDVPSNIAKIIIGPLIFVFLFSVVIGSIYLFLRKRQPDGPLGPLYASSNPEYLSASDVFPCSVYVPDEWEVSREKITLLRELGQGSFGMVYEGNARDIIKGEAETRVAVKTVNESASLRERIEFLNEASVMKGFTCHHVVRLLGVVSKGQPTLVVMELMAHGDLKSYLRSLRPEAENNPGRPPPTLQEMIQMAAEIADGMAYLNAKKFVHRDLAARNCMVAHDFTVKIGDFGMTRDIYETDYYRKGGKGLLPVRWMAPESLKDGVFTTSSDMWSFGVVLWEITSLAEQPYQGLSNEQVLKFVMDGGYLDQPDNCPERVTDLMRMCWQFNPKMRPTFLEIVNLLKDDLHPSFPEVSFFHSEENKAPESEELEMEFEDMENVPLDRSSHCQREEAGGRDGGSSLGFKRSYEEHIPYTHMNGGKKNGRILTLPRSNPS
NLK, sequence (Q9UBE8 whole entry): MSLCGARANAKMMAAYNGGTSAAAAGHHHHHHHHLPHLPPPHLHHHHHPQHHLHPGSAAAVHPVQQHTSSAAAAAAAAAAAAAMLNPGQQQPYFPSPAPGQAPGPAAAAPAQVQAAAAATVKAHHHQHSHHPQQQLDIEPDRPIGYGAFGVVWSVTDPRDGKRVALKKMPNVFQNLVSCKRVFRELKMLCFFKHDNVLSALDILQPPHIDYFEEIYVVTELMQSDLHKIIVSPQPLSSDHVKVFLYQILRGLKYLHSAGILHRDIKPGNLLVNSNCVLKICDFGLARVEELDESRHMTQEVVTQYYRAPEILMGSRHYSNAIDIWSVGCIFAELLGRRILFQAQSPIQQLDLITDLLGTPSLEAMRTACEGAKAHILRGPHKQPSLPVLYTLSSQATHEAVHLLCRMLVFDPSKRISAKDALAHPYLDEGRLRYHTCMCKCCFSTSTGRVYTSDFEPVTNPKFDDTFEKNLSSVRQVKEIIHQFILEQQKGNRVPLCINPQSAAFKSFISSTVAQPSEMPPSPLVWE
TSSK3, sequence (Q96PN8 whole entry): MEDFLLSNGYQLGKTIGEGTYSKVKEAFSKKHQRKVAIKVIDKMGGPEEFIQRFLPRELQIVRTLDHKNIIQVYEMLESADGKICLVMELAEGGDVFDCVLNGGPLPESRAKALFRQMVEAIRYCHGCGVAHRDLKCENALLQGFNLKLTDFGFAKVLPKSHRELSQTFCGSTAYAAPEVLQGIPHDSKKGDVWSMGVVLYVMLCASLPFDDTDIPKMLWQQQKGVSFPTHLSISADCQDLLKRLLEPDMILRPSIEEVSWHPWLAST

Q: For Cc1cnc2nc1Nc1cccc(c1)COCc1cc(ccc1OCCN1CCCC1)N2 [Compound 1], which remaining binding at 0.1 µM [1] is on record?
A: 95%

Q: And the remaining binding at 0.1 µM [2]?
A: 40%

Q: And the remaining binding at 0.1 µM [3]?
A: 97%

Q: And the remaining binding at 0.1 µM [4]?
A: 78%

Q: What about the remaining binding at 0.1 µM [5] of the same compound?
A: 95%

Q: What about the remaining binding at 0.1 µM [6] of the same compound?
A: 65%

Q: What about the remaining binding at 0.1 µM [7] of the same compound?
A: 94%

Q: What about the remaining binding at 0.1 µM [8] of the same compound?
A: 83%

Q: What about the remaining binding at 0.1 µM [9] of the same compound?
A: 98%

Q: What about the remaining binding at 0.1 µM [10] of the same compound?
A: 87%

Q: And the remaining binding at 0.1 µM [11]?
A: 84%

Q: What about the remaining binding at 0.1 µM [12] of the same compound?
A: 89%

Q: And the remaining binding at 0.1 µM [13]?
A: 65%

Q: And the remaining binding at 0.1 µM [14]?
A: 77%

Q: And the remaining binding at 0.1 µM [15]?
A: 43%

Q: What about the remaining binding at 0.1 µM [16] of the same compound?
A: 63%

Q: What about the remaining binding at 0.1 µM [17] of the same compound?
A: 100%

Q: What about the remaining binding at 0.1 µM [18] of the same compound?
A: 57%

Q: And the remaining binding at 0.1 µM [19]?
A: 95%

Q: What about the remaining binding at 0.1 µM [20] of the same compound?
A: 50%

Q: And the remaining binding at 0.1 µM [21]?
A: 78%

Q: What about the remaining binding at 0.1 µM [22] of the same compound?
A: 36%

Q: What about the remaining binding at 0.1 µM [23] of the same compound?
A: 48%

Q: And the remaining binding at 0.1 µM [24]?
A: 93%

Q: What about the remaining binding at 0.1 µM [25] of the same compound?
A: 97%

Reference: article PMC10382584, “Macrocyclization of linear molecules by deep learning to facilitate macrocyclic drug candidates discovery” (Nature Communications, 2023)
